Data from the supplement of paper PMC10307832.

Assays:
Experiment in all cases: relative viability (nuclei count vs DMSO), 5 days (fraction); higher = more cells survive
[1] = compound: CN[C@@H]1C[C@H]2O[C@@](C)([C@@H]1OC)n1c3ccccc3c3c4c(c5c6ccccc6n2c5c31)C(=O)NC4 [Staurosporine] + CC(=O)c1c(C)c2cnc(Nc3ccc(N4CCNCC4)cn3)nc2n(C2CCCC2)c1=O [Palbociclib] (partner 0.5 µM)
Summary of the method: (§1)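 Relative viability equals treated-well nuclei counts divided by vehicle-well nuclei counts. Counts came from 4× images of lung cancer cell lines grown in 1536-well plates for 5 days after pin-tool dosing on the day after seeding. Dosing used one drug alone or a fixed anchor-drug dose plus five library-drug doses (not always all listed) in √10 steps, and values are medians of duplicate plates.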

[2] = compound: O=c1[nH]cc(F)c(=O)[nH]1 [5-Fluorouracil] + C[C@]1(O)C[C@@H](c2nc(-c3ccc4ccc(-c5ccccc5)nc4c3)c3c(N)nccn32)C1 [Linsitinib] (partner 1 µM)
Summary of the method: as §1

[3] = compound: CN[C@@H]1C[C@H]2O[C@@](C)([C@@H]1OC)n1c3ccccc3c3c4c(c5c6ccccc6n2c5c31)C(=O)NC4 [Staurosporine] + O=C(CCCCCCC(=O)Nc1ccccc1)NO [Vorinostat] (partner 1 µM)
Summary of the method: as §1

[4] = compound: CN[C@@H]1C[C@H]2O[C@@](C)([C@@H]1OC)n1c3ccccc3c3c4c(c5c6ccccc6n2c5c31)C(=O)NC4 [Staurosporine] + C[C@]1(O)C[C@@H](c2nc(-c3ccc4ccc(-c5ccccc5)nc4c3)c3c(N)nccn32)C1 [Linsitinib] (partner 1 µM)
Summary of the method: as §1

Row | Cell Line | relative viability ([1]; first compound 0.005 µM) | relative viability ([1]; first compound 0.01581 µM) | relative viability ([1]; first compound 0.05 µM) | relative viability ([1]; first compound 0.1581 µM) | relative viability ([1]; first compound 0.5 µM) | relative viability ([2]; first compound 0.02 µM) | relative viability ([2]; first compound 0.2 µM) | relative viability ([2]; first compound 0.6325 µM) | relative viability ([2]; first compound 2 µM) | relative viability ([3]; first compound 0.005 µM) | relative viability ([3]; first compound 0.01581 µM) | relative viability ([3]; first compound 0.05 µM) | relative viability ([3]; first compound 0.1581 µM) | relative viability ([3]; first compound 0.5 µM) | relative viability ([4]; first compound 0.005 µM) | relative viability ([4]; first compound 0.01581 µM) | relative viability ([4]; first compound 0.05 µM) | relative viability ([4]; first compound 0.1581 µM) | relative viability ([4]; first compound 0.5 µM)
1 | NCI-H441 | 0.161 | 0.12 | 0.118 | 0.114 | 0.112 | 0.51 | 0.519 | 0.397 | 0.301 | 0.458 | 0.327 | 0.232 | 0.144 | 0.114 | 0.304 | 0.126 | 0.153 | 0.153 | 0.141
2 | NCI-H1915 | 0.379 | 0.323 | 0.237 | 0.175 | 0.109 | 1.06 | 1.1 | 1.03 | 0.803 | 0.452 | 0.178 | 0.148 | 0.0885 | 0.0702 | 1.11 |  | 0.61 | 0.486 | 0.342
3 | LXF-289 | 0.717 | 0.21 | 0.16 | 0.141 | 0.117 | 1 | 0.67 | 0.389 | 0.308 | 0.73 | 0.249 | 0.29 | 0.0781 | 0.0815 | 0.846 |  | 0.203 | 0.1 | 0.0809
4 | HCC-827 | 0.59 | 0.401 | 0.299 | 0.226 | 0.225 | 0.909 | 0.95 | 0.57 | 0.405 | 0.866 | 0.772 | 0.384 | 0.174 | 0.183 | 0.992 | 0.853 | 0.726 | 0.769 | 0.624
5 | EMC-BAC-2 | 0.383 | 0.242 | 0.213 | 0.228 | 0.207 | 0.865 | 0.873 | 0.846 | 0.8 | 0.103 |  | 0.14 | 0.166 | 0.266 | 0.457 | 0.394 | 0.122 | 0.152 | 0.133
6 | NCI-H647 | 0.239 |  | 0.0896 | 0.0475 | 0.0477 | 1.05 | 1.32 | 1.16 | 0.701 | 0.247 | 0.117 | 0.0686 | 0.0506 | 0.0527 | 0.616 | 0.361 | 0.22 | 0.112 | 0.0579
7 | NCI-H1792 | 0.614 | 0.577 | 0.323 | 0.274 | 0.26 | 0.554 | 0.484 | 0.14 | 0.0794 |  |  |  |  |  | 0.488 | 0.287 | 0.105 | 0.114 | 0.0997
8 | NCI-H2009 | 0.147 | 0.159 | 0.13 | 0.0987 | 0.0664 | 1.16 | 1.15 | 0.934 | 0.735 | 0.576 | 0.185 | 0.166 | 0.109 | 0.0558 | 0.681 | 0.269 | 0.216 | 0.18 | 0.116
9 | NCI-H2347 | 0.433 | 0.398 | 0.331 | 0.375 | 0.324 | 0.997 | 0.748 | 0.467 | 0.411 | 0.409 | 0.378 | 0.274 | 0.264 | 0.228 | 0.899 | 0.732 | 0.402 | 0.446 | 0.351
